“Also recorded” adds a separate entry of the source. Read-outs that look alike come from different tables or passages of the source. Values belong to the molecule of their own block, whether it stands above or below them.
Key:
[1] = Skin photosensitivity in a murine model; assay type: in vivo; conditions: laser on the skin after 1 hour, monitored over 4 days, scale of 1-4
Experimental: FIG. 24: Skin photosensitivity of Foscan compared to compound II. Photosensitisers were administered at t=0 hrs and a laser shone on the skin after 1 hour. The skin reaction was followed over time and the results were plotted according to the scale shown.
Skin photosensitivity is an important issue to be resolved in PDT. […] In a murine model, Foscan was administered at clinical doses (ref 109) and compared to compound 11 and a photo-immunoconjugate of compound 11. Skin photosensitivity was monitored over 4 days by observation according to a scale of 1-4 (FIG. 24).

[2] = background statement; cited from earlier work
[3] = Solubility in water or buffer (observations); assay type: physicochemical
[4] = Photophysical parameters of the photosensitisers; assay type: physicochemical; conditions: for φΔ, singlet oxygen quantum yield: determined vs. PPa in toluene (0.5), 10% error; for φf, fluorescence quantum yield: determined vs. PPa in toluene (φf = 0.3), 5% error
SKOV3 = experiment: In vitro phototoxicity (MTS cell titre assay after 670 nm laser light), Example 5; assay type: cell-based, human; conditions: free photosensitisers, 2 hrs incubation, 670 nm laser 0.5 W 10 s, MTS after 48 h
Experimental: (§1) Two different human-derived tumour cell lines: SKOV3 and KB were obtained from the European Collection of Cell Cultures (ECACC) and cultured in Dulbecco's modified Eagle's medium (DMEM) with 10% foetal bovine serum, penicillin and streptomycin antibiotics (1%) and passaged when 70-90% confluent in 75 cm^2 flasks. The cells were maintained at 37° C. in a humidified 5% CO2 atmosphere.
(§2) Cells were trypsinised and seeded at 2×10^3 cells/well for KB and 3×10^3 cells/well for SKOV3 into 96-well plates and incubated over two nights for KB and overnight for SKOV3 at 37° C. and 5% CO2. The cells were then washed once in phenol red free DMEM and appropriately diluted photosensitiser solution or photo-immunoconjugate (in DMEM, 2% DMSO) was added to the appropriate wells under subdued lighting. DMEM or Triton X-100 (1%) were added to control wells. After 2 hrs incubation in the dark at 37° C., 5% CO2, cells were washed three times with PBS and 100 μl of DMEM was added to each well.
(§3) Wells were exposed to light from a High Powered-Devices 670 nm laser used at 0.5 W for 10 s. Controls included wells with photosensitiser added and no exposure to light, or DMEM added and exposure to light as well as Triton X-100 (1%) with or without light exposure. Cells that had no photosensitiser added and no exposure to light were included as overall controls. Cells were incubated in the dark at 37° C., 5% CO2 for 48 h after which time, a cell titre assay was performed according to the manufacturer's instructions. The Promega Cell Titre-96 system was used which involves the conversion by live cells of a tetrazolium compound (MTS) into a formazan dye which is measurable by its absorbance at 490 nm.

KB = experiment: as above; assay type: cell-based, human; conditions: free photosensitisers, 2 hrs incubation, 670 nm laser 0.5 W 10 s, MTS after 48 h
Experimental: as §1, §2, §3

SKOV3 cells = experiment: Confocal fluorescence microscopy, intracellular localisation with organelle co-stains; assay type: cell-based, human; conditions: for golgi localisation (co-localisation with Bodipy ceramide): FIG. 20; for mitochondrial localisation (co-localisation with Mito-tracker): FIG. 21; for lysosomal localisation (co-localisation with Lyso-tracker): FIG. 22
Experimental: Imaging took place at the FILM Imperial College London on a LEICA SP5 MP inverted confocal microscope, at 37° C. and under a CO2 supplemented atmosphere. The water objective (63×) was used in all the experiments. Images were processed using the Leica software, Image J and Powerpoint.
Note: in any experiment where a photosensitiser is used on cells, the experiment is done under subdued lighting exposing the cells to as little light as possible and incubating wrapped in foil. Following addition of PS to cells, cells were no longer observed on the microscope.
Cells were plated on a Labt-Tek® 8 Chambered #1.0 Borosilicate Coverglass System. With some cell lines, it is often useful to use an attachment factor (200 μl, 30 mins, 37° C.) to coat the wells first.
Photosensitiser solutions in phenol red free DMEM (10% FBS, 1% P/S, 0.5% DMSO) were prepared fresh and pre-warmed to 37° C. for 15 mins. The cells were washed with media (1×200 μl) before adding the solutions (200 μl per chamber). Unless otherwise stated, the cells were grown over 20 hrs in a humidified atmosphere (37° C., 5% CO2). The cells were washed (2×200 μl) with prewarmed phenol red free DMEM
(§4) Lysotracker® Green DND-26 was diluted according to manufacturers indications (1 mM stock) and further diluted to twice the working concentration in DMEM (10% FBS, 1% P/S). For use for single colour staining, this was diluted with DMEM (10% FBS, 1% P/S) to a final concentration of 1 μM. When it was used for two colour staining with photosensitisers, a 2 μM solution was twice diluted in photosensitiser solution to give a 1 μM final concentration.
The cells were incubated for 15 mins at 4° C. and a further 30 mins at 37° C. before replacing with fresh medium and imaging.
as §4, with “MitoTracker®” for “Lysotracker®”, “Green” for “Green DND-26”
The cells were incubated for 15 mins at 4° C. and a further 1 hr at 37° C. before replacing with fresh medium and imaging.
ER-Tracker™ Green (BODIPY® FL glibenclamide) was diluted according to manufacturer's indications (1 mM stock) and further diluted to twice the working concentration in HBSS buffer (+2% HEPES). For use for single colour staining, this was diluted with HBSS (+2% HEPES) to a final concentration of 3 μM. When it was used for two colour staining with photosensitisers, a 6 μM solution was twice diluted in photosensitiser solution to give a 3 μM final concentration.
The cells were incubated for 15 mins at 4° C. and a further 1 hr at 37° C. before replacing with fresh buffer and imaging.
Bodipy® FL C5-ceramide complexed to BSA was diluted according to manufacturer's indications (0.5 mM stock) and further diluted to twice the working concentration in HBSS buffer (+2 HEPES). For use for single colour staining, this was diluted with HBSS (+2% HEPES) to a final concentration of 5 μM. When it was used for two colour staining with photosensitisers, a 10 μM solution was twice diluted in photosensitiser solution to give a 5 μM final concentration. The cells were incubated for 15 mins at 4° C. and a further 30 mins at 37° C. before washing with cold HBSS/HEPES (3×100 μl) and replacing with either HBSS/HEPES or photosensitiser solution and incubating at 37° C. for a further 30 mins before replacing with fresh buffer and imaging.

[5] = Biodistribution and blood clearance of 125I-radiolabelled photosensitisers and PICs in SKOV3 tumour mice; assay type: in vivo, BALB/c nude mice; conditions: for blood clearance: iv, radiolabelled, 1-24 hr, SKOV3 tumour mice
Experimental: 0.1 mg of photosensitiser was dissolved in 0.5 ml PBS. Radiolabelled Iodine (Na^125I, ICN chemicals) was added to 0.1 ml of PBS in Iodogen-coated tubes (Pierce chemicals) and allowed to activate. The activated iodine-125 was transferred to the photosensitiser and allowed to react for 5-10 minutes at room temperature. The radiolabelled photosensitiser was separated from free iodine on a mini silica gel column eluting with 100% PBS to remove the iodinating agent followed by a gradual switch from 10% MeOH/PBS to 100% MeOH with the radiolabelled photosenstiser eluting with 10% MeOH/chloroform. The radiolabelled solutions of the photosensitiser was allowed to air-dry and re-suspended in PBS containing 2% DMSO.
(§5) Female BALB/c nude mice (aged 6-8 weeks old) were implanted with 10^7 SKOV3 tumour cells mixed in 0.1 ml of ice-cold matrigel subcutaneously and the tumours were allowed to grow for 3-6 weeks as xenografts. Mice were maintained in IVC cages (individually-vented cages) in a clean room. Samples were injected in a volume of 0.1 ml, intravenously via the lateral tail vein and the mice were maintained in low light with full food and water (irradiated). At various time points (1-24 hr), mice were culled by cardiac puncture under terminal anesthesia and blood and tissues collected. All the tissues were counted for radioactivity by gamma counting and weighed.
The results are shown as a percentage of radioactive material injected per gram of tissue.
(§6) The PS (PPa and PPa-PEG) were chemically coupled to C6 scFv, radiolabelled with iodogen as before, but dialysed against 3×5 L of PBS to remove the free iodine and injected into BALB/c nude mice with SKOV3 tumours as above. Tissues were dissected and counted as above.

SKOV3 tumour = experiment: Tumour uptake and tumour:blood ratio of radiolabelled photosensitisers and PICs; assay type: in vivo, BALB/c nude mice; conditions: % of the injected dose/g of tumour tissue
Experimental: as §5, §6
The tumours were counted for radioactivity and expressed as % of the injected dose/g of tumour tissue (FIG. 10).
The percentage PS in the tumour was divided by the percentage in the blood (gram for gram) to give a targeting or tumour:blood ratio (the higher the better). This plotted in FIG. 11. A high tumour:blood ratio means that there is more in the tumour compared to the blood (and other tissues). This is a function of tumour uptake and blood clearance (see FIGS. 9 and 10).

[6] = reference value of PPa in toluene; cited from earlier work

Molecule: Oc1cccc(-c2c3nc(c(-c4cccc(O)c4)c4ccc([nH]4)c(-c4cccc(O)c4)c4nc(c(-c5cccc(O)c5)c5ccc2[nH]5)CC4)C=C3)c1 [Foscan, reference compound]
- skin photosensitivity [1]: significant skin sensitivity
- skin photosensitivity (duration) [2]: about 2 weeks

Molecule: CCC1=C(C)c2cc3[nH]c(c(C)c3CC)c(-c3cc[n+](CCOCCOCCOC)cc3)c3nc(c4c5[nH]c(cc1n2)c(C)c5C(=O)C4)[C@@H](CCC(=O)O)[C@@H]3C [compound 31C, 3-devinyl-20-(4-triethyleneoxidepyridinium) pyropheophorbide-a chloride]
- τΔ, singlet oxygen lifetime [4]: 30 μs
- φΔ, singlet oxygen quantum yield [4]: 0.73
- φf, fluorescence quantum yield [4]: 0.15
- IC50 (SKOV3; Homo sapiens, SK-OV-3): 260 ± 31 µM
- IC50 (KB; Homo sapiens, KB): 24.7 ± 11.7 µM
- golgi localisation (co-localisation with Bodipy ceramide) (SKOV3 cells): very little yellow staining
- mitochondrial localisation (co-localisation with Mito-tracker) (SKOV3 cells): very little yellow staining
- lysosomal localisation (co-localisation with Lyso-tracker) (SKOV3 cells): significant yellow staining
- ER localisation (co-localisation with ER-tracker) (SKOV3 cells; FIG. 23): no yellow staining
- intracellular localisation (intrinsic fluorescence) (SKOV3 cells; no co-stain, FIG. 19): more punctuate staining pattern indicative of endosomal (aqueous compartment) localisation
- blood clearance [5]: clears more rapidly than the PPa-PEG

Molecule: Pyropheophorbide-a [PPa, reference compound]
- τΔ, singlet oxygen lifetime [4]: 30 μs
- IC50 (SKOV3): 14.5 ± 3.2 µM
- IC50 (KB): 1.2 ± 0.4 µM
- golgi localisation (co-localisation with Bodipy ceramide) (SKOV3 cells): significant yellow staining
- mitochondrial localisation (co-localisation with Mito-tracker) (SKOV3 cells): significant yellow staining
- lysosomal localisation (co-localisation with Lyso-tracker) (SKOV3 cells): insignificant yellow staining
- tumour uptake (SKOV3 tumour): high
- level in tissues (biodistribution) ([5]; % of radioactive material injected per gram of tissue, over 24 hour): high levels in all major tissues
- blood clearance [5]: resides in the blood for a long time; also recorded: very slow
- φf, fluorescence quantum yield [6]: 0.3
- φΔ, singlet oxygen quantum yield [6]: 0.5

Molecule: CCC1=C(C)c2cc3[nH]c(c(C)c3CC)c(C#CCCCC(=O)O)c3nc(c4c5[nH]c(cc1n2)c(C)c5C(=O)C4)[C@@H](CCC(=O)OCc1cc(OCCOCCOCCOC)c(OCCOCCOCCOC)c(OCCOCCOCCOC)c1)[C@@H]3C [compound 10, Meso 5-Ethynylhexanoic acid pyropheophorbide a-3,4,5-(triethylene glycolmonomethylether) benzyl ester]
- τΔ, singlet oxygen lifetime [4]: 30 μs
- φΔ, singlet oxygen quantum yield [4]: 0.56
- φf, fluorescence quantum yield [4]: 0.26

Molecule: N-Bis-[3-(trimethylamino)propyl]-meso 5-Bromopyropheophorbide a amide diiodide [compound 19]
- solubility in water [3]: readily soluble in water and methanol

Second part, the molecule after the results:

- solubility in water [3]: highly aqueous soluble
Molecule: Meso pyropheophorbide a-3,4,5-(triethylene glycol monmethylether) 3-devinyl-3-carboxybenzyl-3,4,5-(triethylene glycol monomethylether) pyropheophorbide a [compound 38]

- solubility in water [3]: water soluble
Molecule: Manganese(III)-5-ethynyl hexynoic acid pyropheophorbide a-3,4,5-(triethylnene glycol monomethyl ether) benzyl ester [compound 57]
